Experimental data published in US11306064B2, “Benzothia(di)azepine compounds and their use as bile acid modulators” (Albireo AB, priority 2018, dated 2022).

Columns and labels:
Assay type in all cases: cell-based
[1] = target: T1, Human ASBT (Homo sapiens, UniProt Q12908); assay: ASBT (h/m) assay: 3H-taurocholic acid uptake in human ASBT-overexpressing cells; conditions: 0.25 μM 3H-taurocholic acid and 5 μM cold taurocholic acid, 20 minutes, read-out: hASBT IC50
T1 construct: expressed in transfected cells; kept under Puromycin selection
T1 sequence (Q12908 1-348): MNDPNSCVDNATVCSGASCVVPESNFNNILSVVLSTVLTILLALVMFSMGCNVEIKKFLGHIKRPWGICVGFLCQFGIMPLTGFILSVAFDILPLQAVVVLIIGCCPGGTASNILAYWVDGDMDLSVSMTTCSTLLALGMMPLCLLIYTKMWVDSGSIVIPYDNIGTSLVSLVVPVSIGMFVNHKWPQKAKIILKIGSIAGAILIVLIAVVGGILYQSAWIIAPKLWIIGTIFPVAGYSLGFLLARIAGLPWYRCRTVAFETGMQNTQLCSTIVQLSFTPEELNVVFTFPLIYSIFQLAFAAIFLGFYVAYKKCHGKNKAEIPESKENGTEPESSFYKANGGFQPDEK
Procedure, shortened: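 ASBT-overexpressing cells, seeded 48 h earlier, took up 0.25 µM 3H-taurocholic acid plus 5 µM cold taurocholate for 20 min at 37 °C with inhibitor (10-point 3-fold series, top 10 µM, 0.2% DMSO). Ice stop, washes with cold 1 mM taurocholate in HEPES-HBSS pH 7.4, scintillation counting.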

[2] = test system: HepaRG cells; assay: HepaRG-based assay: 3H-taurocholic acid uptake in differentiated HepaRG cells; conditions: Homo sapiens, HepaRG, 0.3 μM 3H-taurocholic acid and 7.5 μM cold taurocholic acid, 30 minutes
Procedure, shortened: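 Differentiated HepaRG cells cultured 7 days post-seeding were exposed for 30 min at 37 °C to 0.3 μM 3H-taurocholic acid plus 7.5 μM cold taurocholic acid with inhibitor (3-fold dilutions, 0.2% DMSO). Uptake was stopped on ice, washed with 1 mM unlabelled taurocholic acid, and counted by scintillation.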

[3] = target: T2, Human LBAT (Homo sapiens, UniProt Q14973); assay: LBAT (h/m) assay: 3H-taurocholic acid uptake in human LBAT-overexpressing cells; conditions: 0.3 μM 3H-taurocholic acid and 7.5 μM cold taurocholic acid, 20 minutes, read-out: hLBAT IC50
T2 construct: expressed in transfected cells; kept under Geneticin selection
T2 sequence (Q14973 1-349): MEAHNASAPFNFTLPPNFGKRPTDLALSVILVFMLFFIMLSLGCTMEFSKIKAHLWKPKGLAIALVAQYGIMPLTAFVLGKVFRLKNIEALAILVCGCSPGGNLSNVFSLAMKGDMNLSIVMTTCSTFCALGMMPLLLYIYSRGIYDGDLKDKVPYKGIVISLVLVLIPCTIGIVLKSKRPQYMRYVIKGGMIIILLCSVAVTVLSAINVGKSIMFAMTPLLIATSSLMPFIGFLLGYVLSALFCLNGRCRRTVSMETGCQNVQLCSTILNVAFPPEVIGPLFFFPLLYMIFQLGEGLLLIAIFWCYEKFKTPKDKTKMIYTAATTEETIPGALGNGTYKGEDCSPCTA
Procedure, shortened: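 LBAT-overexpressing cells, serum-free MEM-alpha, 20 min at 37° C with inhibitor (3-fold, 10-point) plus 0.3 μM 3H-taurocholic acid and cold taurocholic acid (7.5 μM human; 25 μM mouse), 0.2% DMSO. Stopped on ice, washed with 1 mM unlabelled taurocholate; uptake by scintillation counting.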

SMILES	IC50 [1]	IC50 [2]	IC50 [3]
CCCCC1(CC)CN(c2ccccc2)c2cc(I)c(O/C=C/C(=O)O)cc2S(=O)(=O)C1 (single isomer, unassigned) [Example 57, (E)-3-((3-butyl-3-ethyl-7-iodo-1,1-dioxido-5-phenyl-2,3,4,5-tetrahydro-1,5-benzothiazepin-8-yl)oxy)acrylic acid]	361 nM	1160 nM	137 nM
CCCCC1(CCCC)CN(c2ccc(C(F)(F)F)cc2)c2cc(SC)c(O/C=C/C(=O)O)cc2S(=O)(=O)C1 [Example 32, (E)-3-((3,3-dibutyl-7-(methylthio)-1,1-dioxido-5-(4-(trifluoromethyl)phenyl)-2,3,4,5-tetrahydro-1,5-benzothiazepin-8-yl)oxy)acrylic Acid]	209 nM	672 nM	506 nM
CCCCC1(CC)CN(c2ccccc2)c2cc(SCC)c(O/C=C/C(=O)O)cc2S(=O)(=O)C1 (stereo not drawn) [Example 73, (E)-3-((3-butyl-3-ethyl-7-(ethylthio)-1,1-dioxido-5-phenyl-2,3,4,5-tetrahydro-1,5-benzothiazepin-8-yl)oxy)acrylic Acid]	155 nM	766 nM	120 nM
CCCCC1(CCCC)CN(c2ccc(NC(=O)OC)cc2)c2cc(SC)c(O/C=C/C(=O)O)cc2S(=O)(=O)C1 [Example 24, (E)-3-((3,3-dibutyl-5-(4-((methoxycarbonyl)amino)phenyl)-7-(methylthio)-1,1-dioxido-2,3,4,5-tetrahydro-1,5-benzothiazepin-8-yl)oxy)acrylic Acid]	4670 nM	2280 nM	225 nM
CCCCC1(CC)CN(c2ccccc2)c2ccc(O/C=C/C(=O)O)cc2S(=O)(=O)C1 (stereo not drawn) [Example 21, (E)-3-((3-butyl-3-ethyl-1,1-dioxido-5-phenyl-2,3,4,5-tetrahydro-1,5-benzothiazepin-8-yl)oxy)acrylic Acid]	929 nM	5230 nM	4150 nM
CCCCC1(CC)CN(c2ccccc2)c2cc(Cl)c(O/C=C/C(=O)O)cc2S(=O)(=O)C1 (single isomer, unassigned) [Example 50, (E)-3-((3-butyl-7-chloro-3-ethyl-1,1-dioxido-5-phenyl-2,3,4,5-tetrahydro-1,5-benzothiazepin-8-yl)oxy)acrylic acid]	77 nM	339 nM	89 nM
CCCCC1(CCCC)CN(c2ccccc2)c2cc(SC)c(O/C=C(\C)C(=O)O)cc2S(=O)(=O)N1 [Example 74, (E)-3-((3,3-dibutyl-7-(methylthio)-1,1-dioxido-5-phenyl-2,3,4,5-tetrahydro-1,2,5-benzothiadiazepin-8-yl)oxy)-2-methylacrylic Acid]	57 nM	3380 nM	649 nM
CCC1(CC)CN(c2ccc(NCc3ccccc3)cc2)c2cc(SC)c(O/C=C(\F)C(=O)O)cc2S(=O)(=O)C1 [Example 66, (Z)-3-((5-(4-(benzylamino)phenyl)-3,3-diethyl-7-(methylthio)-1,1-dioxido-2,3,4,5-tetrahydro-1,5-benzothiazepin-8-yl)oxy)-2-fluoroacrylic Acid]	2760 nM	518 nM	30 nM
CCC1(CC)CN(c2ccccc2)c2cc(I)c(O/C=C/C(=O)O)cc2S(=O)(=O)C1 [Example 54, (E)-3-((3,3-diethyl-7-iodo-1,1-dioxido-5-phenyl-2,3,4,5-tetrahydro-1,5-benzothiazepin-8-yl)oxy)acrylic Acid]	186 nM	260 nM	100 nM
CCC1(CC)CN(c2ccccc2)c2cc(SC)c(O/C=C/C(=O)O)cc2S(=O)(=O)C1 [Example 39, (E)-3-((3,3-diethyl-7-(methylthio)-1,1-dioxido-5-phenyl-2,3,4,5-tetrahydro-1,5-benzothiazepin-8-yl)oxy)acrylic Acid]	796 nM	399 nM	75 nM
CCCCC1(CCCC)CN(c2ccccc2)c2ccc(O/C=C(\F)C(=O)O)cc2S(=O)(=O)C1 [Example 45, (Z)-3-((3,3-dibutyl-1,1-dioxido-5-phenyl-2,3,4,5-tetrahydro-1,5-benzothiazepin-8-yl)oxy)-2-fluoroacrylic Acid]	1460 nM	3160 nM	201 nM
CCCCC1(CCCC)CN(c2ccc(Br)cc2)c2cc(SC)c(O/C=C/C(=O)O)cc2S(=O)(=O)C1 [Example 15, (E)-3-((5-(4-bromophenyl)-3,3-dibutyl-7-(methylthio)-1,1-dioxido-2,3,4,5-tetrahydro-1,5-benzothiazepin-8-yl)oxy)acrylic Acid]	253 nM	2250 nM	532 nM
CCCC[C@]1(CC)CN(c2ccccc2)c2cc(SC)c(O/C=C(\F)C(=O)O)cc2S(=O)(=O)N1C (single isomer, unassigned) [Example 100]	631 nM	1450 nM	49 nM
CCCCC1(CCCC)CN(c2ccc(C(=O)NC(C)(C)C)cc2)c2cc(SC)c(O/C=C/C(=O)O)cc2S(=O)(=O)C1 [Example 68, (E)-3-((3,3-dibutyl-5-(4-(tert-butylcarbamoyl)phenyl)-7-(methylthio)-1,1-dioxido-2,3,4,5-tetrahydro-1,5-benzothiazepin-8-yl)oxy)acrylic Acid]	6670 nM	344 nM	130 nM
CCCCC1(CC)CN(c2ccc(C(=O)NC(C)(C)C)cc2)c2cc(SC)c(O/C=C/C(=O)O)cc2S(=O)(=O)C1 (stereo not drawn) [Example 62, (E)-3-((3-butyl-5-(4-(tert-butylcarbamoyl)phenyl)-3-ethyl-7-(methylthio)-1,1-dioxido-2,3,4,5-tetrahydro-1,5-benzothiazepin-8-yl)oxy)acrylic Acid]	> 20000 nM	772 nM	235 nM
CCCC[C@@]1(CC)CN(c2ccccc2)c2cc(SC)c(O/C=C/C(=O)O)cc2S(=O)(=O)N1 (single isomer, unassigned) [Example 77]	24 nM	5330 nM	297 nM
CCCCC1(CCCC)CN(c2ccc(OC)cc2)c2cc(SC)c(O/C=C/C(=O)O)cc2S(=O)(=O)C1 [Example 19, (E)-3-((3,3-dibutyl-5-(4-methoxyphenyl)-7-(methylthio)-1,1-dioxido-2,3,4,5-tetrahydro-1,5-benzothiazepin-8-yl)oxy)acrylic Acid]	128 nM	2890 nM	783 nM
CCCCC1(CCCC)CN(c2ccc(NC(=O)CCC)cc2)c2cc(SC)c(O/C=C/C(=O)O)cc2S(=O)(=O)C1 [Example 40, (E)-3-((3,3-dibutyl-5-(4-butyramidophenyl)-7-(methylthio)-1,1-dioxido-2,3,4,5-tetrahydro-1,5-benzothiazepin-8-yl)oxy)acrylic Acid]	4550 nM	1510 nM	108 nM
CCCCC1(CCCC)CN(c2ccc(NC(=O)OC(C)(C)C)cc2)c2cc(SC)c(O/C=C/C(=O)O)cc2S(=O)(=O)C1 [Example 3, (E)-3-((5-(4-((tert-butoxycarbonyl)amino)phenyl)-3,3-dibutyl-7-(methylthio)-1,1-dioxido-2,3,4,5-tetrahydro-1,5-benzothiazepin-8-yl)oxy)acrylic Acid]	> 10000 nM	885 nM	177 nM
CCCCC1(CC)CN(c2ccccc2)c2cc(SC)c(O/C=C/C(=O)O)cc2S(=O)(=O)N1C (racemic) [Example 88, (E)-3-((3-butyl-3-ethyl-2-methyl-7-(methylthio)-1,1-dioxido-5-phenyl-2,3,4,5-tetrahydro-1,2,5-benzothiadiazepin-8-yl)oxy)acrylic Acid]	2250 nM	1150 nM	70 nM
CCCCC1(CC)CN(c2ccccc2)c2cc(Cl)c(O/C=C/C(=O)O)cc2S(=O)(=O)C1 (racemic) [Example 49, (E)-3-((3-butyl-7-chloro-3-ethyl-1,1-dioxido-5-phenyl-2,3,4,5-tetrahydro-1,5-benzothiazepin-8-yl)oxy)acrylic Acid]	220 nM	570 nM	94 nM
